What was measured:
[1] = tested on: human alpha 1-antitrypsin reporter gene expression; test: Serum level of human α1-antitrypsin reporter after adenovirus administration (Example 2); assay type: in vivo; set-up: average serum level of human α1-antitrypsin: unit not given here; conditions: NMRI mice
Procedure: (§1) On day 0, all mice were administered-a dose of 1×10^10 adenoviruses via the tail vein. The recombinant adenoviruses carry the gene for human alpha 1-antitrypsin as a reporter gene found in the serum. This gene has proven to be a practicable reporter, since it is not antigenic in the mouse, but nevertheless can be differentiated from murine alpha 1-antitrypsin using a specific antibody. The half-life of the antiprotease is approximately 3-4 days, so that the serum level reflects the current synthesis capacity of the liver very well.
(§2) The total collective was subdivided into five groups of 4 animals each, which were treated as follows: • 1st group: control group—no immunosuppressant treatment, administration of saline solution i.p. for the period of 5 days after virus administration. • 2nd . group: FK 506 group—administration of 1 mg/kg/day of FK 506 i.p. beginning 1 day before virus administration and then for a period of 5 days. • 3rd group: cyclosporin A group—administration of 20 mg/kg/day i.p. beginning 1 day before virus administration and then for a period of 5 days. • 4th group: DSG group—administration of 10 mg/kg/day i.p. beginning 1 day before virus administration and then for the period of 5 days. • 5th group: DSG++ group—administration of 10 mg/kg/day i.p. beginning 1 day before virus administration and then daily for the period of five days and then twice weekly for the period of 150 days.
(§3) NMRI mice were used, since these mice, due to their genetic heterogeneity, develop an immunological reaction pattern which approaches that of a human population more closely than pure inbred strains; the price is an increased variability in the immunological reactivity. In spite of this, the individual groups develop significant reaction patterns.

[2] = tested on: antibodies after recombinant adenovirus vector administration; test: Formation of antibodies after vector administration (Example 1); assay type: in vivo; conditions: mice; cyclosporin A 50-100 mg/kg/day, DSG 10 mg/kg/day for 21 days after recombinant adenovirus
Procedure: Cyclosporin A (50-100 mg/kg/day) and DSG (10 mg/kg/day) was administered to the mice over a period of 21 days after administration of a recombinant adenovirus (reporter gene β-galactosidase; Bett et al. Proc. Natl. Acad. Sci. USA, 91 (1994), pages 8802-8806).
In the control group, it was possible to detect the formation of antibodies even 5 days after vector administration.

[3] = tested on: reporter gene β-galactosidase expression in the liver; test: Reporter gene (β-galactosidase) expression in the liver after recombinant adenovirus administration (Example 1); assay type: in vivo, mice
[4] = tested on: antibody load against viral proteins; test: Mean antibody titer against viral proteins after adenovirus administration (Example 2); assay type: in vivo; conditions: NMRI mice
Procedure: as §1, §2, §3
The quantitative factor 15 days after discontinuing DSG is approximately 1.8. Continuous treatment (2× weekly) is no longer able to increase this effect dramatically. […] Even the transient administration of DSG reduces the antibody response in comparison with the control by more than 60% with, at the same time, a markedly positive effect on expression.

[5] = day 5, i.p. from 1 day before virus then for 5 days (FK 506 1, cyclosporin A 20, DSG 10 mg/kg/day)
[6] = day 10, i.p. from 1 day before virus then for 5 days (FK 506 1, cyclosporin A 20, DSG 10 mg/kg/day)
[7] = day 20, i.p. from 1 day before virus then for 5 days (FK 506 1, cyclosporin A 20, DSG 10 mg/kg/day)
[8] = day 30, DSG++ group: 10 mg/kg/day i.p. from 1 day before virus, daily for five days, then twice weekly for 150 days
[9] = day 30, i.p. from 1 day before virus then for 5 days (FK 506 1, cyclosporin A 20, DSG 10 mg/kg/day)
[10] = day 60, i.p. from 1 day before virus then for 5 days (FK 506 1, cyclosporin A 20, DSG 10 mg/kg/day)
[11] = day 100, DSG++ group: 10 mg/kg/day i.p. from 1 day before virus, daily for five days, then twice weekly for 150 days
[12] = day 100, i.p. from 1 day before virus then for 5 days (FK 506 1, cyclosporin A 20, DSG 10 mg/kg/day)
[13] = day 150, DSG++ group: 10 mg/kg/day i.p. from 1 day before virus, daily for five days, then twice weekly for 150 days
[14] = day 150, i.p. from 1 day before virus then for 5 days (FK 506 1, cyclosporin A 20, DSG 10 mg/kg/day)
[15] = day 200, DSG++ group: 10 mg/kg/day i.p. from 1 day before virus, daily for five days, then twice weekly for 150 days
[16] = day 200, i.p. from 1 day before virus then for 5 days (FK 506 1, cyclosporin A 20, DSG 10 mg/kg/day)
[17] = mice treated with DSG only for 5 days after vector administration, 42nd day after vector administration

Cl.Cl.Cl.N=C(N)NCCCCCCC(=O)NC(O)C(=O)NCCCCNCCCN (stereo not shown) [DSG, 1-amino-19-guanidine-11-hydroxy-4,9,12-triazanondecane-10,13-dione trihydrochloride]
effect on antitrypsin expression ([1]; 5-day treatment with DSG): marked increase and prolongation of antitrypsin expression
quantitative factor (transgenic expression product of immunosuppressed group / nonimmunosuppressed control group) ([1]; 15 days after discontinuing DSG (5-day treatment, 10 mg/kg/day i.p.)): approximately 1.8
expression with continuous treatment compared with transient administration ([1]; continuous DSG treatment (2× weekly) versus transient administration): only slightly increased
average serum level of human α1-antitrypsin ([1]; day 5, DSG++ group: 10 mg/kg/day i.p. from 1 day before virus, daily for five days, then twice weekly for 150 days): 2775000
average serum level of human α1-antitrypsin [1, 5]: 2775000
average serum level of human α1-antitrypsin ([1]; day 10, DSG++ group: 10 mg/kg/day i.p. from 1 day before virus, daily for five days, then twice weekly for 150 days): 677500
average serum level of human α1-antitrypsin [1, 6]: 1560000
average serum level of human α1-antitrypsin ([1]; day 20, DSG++ group: 10 mg/kg/day i.p. from 1 day before virus, daily for five days, then twice weekly for 150 days): 1178750
average serum level of human α1-antitrypsin [1, 7]: 1826250
average serum level of human α1-antitrypsin [1, 8]: 1082500
average serum level of human α1-antitrypsin [1, 9]: 1001250
average serum level of human α1-antitrypsin ([1]; day 60, DSG++ group: 10 mg/kg/day i.p. from 1 day before virus, daily for five days, then twice weekly for 150 days): 297500
average serum level of human α1-antitrypsin [1, 10]: 213500
average serum level of human α1-antitrypsin [1, 11]: 68750
average serum level of human α1-antitrypsin [1, 12]: 51750
average serum level of human α1-antitrypsin [1, 13]: 17125
average serum level of human α1-antitrypsin [1, 14]: 13125
average serum level of human α1-antitrypsin [1, 15]: 14350
average serum level of human α1-antitrypsin [1, 16]: 10625
antibody production [2]: completely eliminated
proportion of animals with expression still measurable [3, 17]: approximately 50%
reporter gene expression relative to the maximal expression [3, 17]: approximately 10%
reporter gene expression after discontinuing the immunosuppressants ([3]; mice, 21 days after discontinuing 21-day treatment (42 days after vector administration)): a massive gene expression was still detectable
reporter gene expression in the liver over the treatment period ([3]; mice, cyclosporin A 50-100 mg/kg/day, DSG 10 mg/kg/day for 21 days after recombinant adenovirus, treatment period of 21 days): continues undecreased
reduction of antibody load against viral proteins ([4]; continuous DSG treatment (2× weekly), after 150 days): approximately 90%
Mean antibody titer [4, 8]: 13005
Mean antibody titer [4, 9]: 26310
Mean antibody titer [4, 11]: 11251
Mean antibody titer [4, 12]: 31029
Mean antibody titer [4, 13]: 7335
Mean antibody titer [4, 14]: 25149
Mean antibody titer [4, 15]: 9669
Mean antibody titer [4, 16]: 20586
reduction of antibody response in comparison with the control ([4]; transient administration of DSG (5 days)): more than 60%

C=CC[C@@H]1/C=C(\C)C[C@H](C)C[C@H](OC)[C@H]2O[C@@](O)(C(=O)C(=O)N3CCCC[C@H]3C(=O)O[C@H](/C(C)=C/[C@@H]3CC[C@@H](O)[C@H](OC)C3)[C@H](C)[C@@H](O)CC1=O)[C@H](C)C[C@@H]2OC [FK 506]
average serum level of human α1-antitrypsin [1, 5]: 1725000
average serum level of human α1-antitrypsin [1, 6]: 1278750
average serum level of human α1-antitrypsin [1, 7]: 376250
average serum level of human α1-antitrypsin [1, 9]: 17475
average serum level of human α1-antitrypsin [1, 10]: 4258
average serum level of human α1-antitrypsin [1, 12]: 313
average serum level of human α1-antitrypsin [1, 14]: 1.5
average serum level of human α1-antitrypsin [1, 16]: 1.5
Mean antibody titer [4, 9]: 65536
Mean antibody titer [4, 12]: 43832
Mean antibody titer [4, 14]: 25149
Mean antibody titer [4, 16]: 17710

Source: US20070191299A1, “Extension Of The Expression of Transgenic Proteins By Immunomodulation” (priority 1997, published 2007)
